Laboratory results: patent US12649748B2, “Wee1 inhibitor and use thereof” (JIANGSU TASLY DIYI PHARMACEUTICAL CO., LTD., priority 2021, dated 2026)
Values after ≈ are worked out from the molar mass of the structure shown. Where two headings read alike, the source gives them in different places.

What was measured:
[1] = Metabolic stability of liver microsomes in vitro (mouse); assay type: in vitro ADME; settings: read-out: Mouse T1/2/min
Procedure: (§1) Microsomes were taken out from the −80° C. refrigerator, rapidly melted in a 37° C. water bath and placed on ice until ready to use. The test article was diluted with DMSO to prepare a 10 mM stock solution, and then diluted with acetonitrile to a 0.5 mM secondary stock solution. The microsomes were diluted to 0.75 mg/ml using Buffer C; the secondary stock solution was then added to a final concentration of 1.5 μM of compound as working solution, based on n=2, 5 time points, 350 μL of each compound was prepared and placed on ice prior to use. NADPH was diluted with Buffer C to a working solution of 6 mM for the starter solution. An acetonitrile solution containing an internal standard was prepared as the precipitant, and Verapamil-HCl was chosen as the internal standard at a concentration of 4 ng/ml.
(§2) A round-bottom well plate was taken, noted as the reaction plate, and the prepared working solution for each compound was dispensed into the well plate according to the number of replicates and time points (0 h samples are also added to the reaction plate), 30 μL/well; the plate was incubated at 37° C. for 10 min. A separate plate with pointed bottom wells, noted as a precipitation plate, was added with 135 μL precipitant per well; 0 h samples were transferred to the plate after 10 min incubation and 15 μL of starter solution was added; the plate was placed on ice before centrifugation.
(§3) The diluted starter solution was added in sufficient quantity to the dispensing plate to facilitate the multichannel pipette aspiration operation.
(§4) The reaction was carried out on a warm incubation shaker and 15 μL of starter solution/sample is added to the plate using a multichannel pipette. The reaction was mixed with a slight shake to initiate the reaction, which was accurately timed and recorded using a timer;
(§5) After the reaction time had elapsed, all the solution in the plate was aspirated using the multichannel pipette and added to the precipitation plate to terminate the reaction at that point in time. After all reactions had been terminated, the plates were shaken for ten minutes on a plate shaker at 600 rpm to precipitate the protein. The plate was centrifuged at 4° C. for 15 minutes at maximum rpm. 80 μL of supernatant was taken, 320 μL of pure water was added and mixed for LC-MS analysis.

[2] = Membrane permeability study (Caco-2); assay type: in vitro ADME; settings: human; for efflux ratio at 90 min, 10 µM: Caco-2, pH 7.4, read-out: Efflux Ration; for Papp A→B at 90 min, 10 µM / Papp B→A at 90 min, 10 µM: pH 7.4, Caco-2, 10 μM; for Papp A→B at 90 min, 10 µM: A to B; for Papp B→A at 90 min, 10 µM: B to A
Procedure: Caco-2 cells were purchased from the […] (Rockville, MD). The cell culture medium was modified Eagle's medium (MEM) containing 10% inactivated fetal bovine serum and 1% non-essential amino acids. Cells were inoculated on polycarbonate filter membranes (Cat no. 3396) and incubated at 37° C. in a 5% CO2 incubator.
The cells were incubated for 21-28 days after inoculation for transport experiments and the apparent permeability (Papp) of Lucifer Yellow was used to characterize and verify the compactness of the cell monolayer. A stock solution of 10 mM was prepared by dissolving the compound in DMSO and diluted using Hanks Balanced Salt Solution (HBSS, Invitrogen, Cat #14025-092) containing 25 mM HEPES (pH 7.4) to obtain the working solution. A 10 μM working solution of the compound to be tested was added to the apical side and basolateral side of Caco-2 and incubated at 37° C. for 90 min. After the incubation, dilute the samples on the apical side and basolateral side, and the concentrations of compounds on the apical and basolateral sides were detected by LC-MS/MS, and the concentrations of the compounds were quantified by standard curve.

[3] = test system: H1299 cells; assay: Anti-proliferative effect by Cell Titer-Glo, H1299; assay type: cell-based; settings: Homo sapiens, NCI-H1299, 72 h, read-out: IC50 measured value H1299
Procedure: (§6) Compound solutions of different concentration gradients were prepared. DMSO was dissolved to a concentration of 10 mM test compound and 10 mM reference compound AZD1775, and the compounds were serially diluted in culture medium for a total of 9 dose points, with 2 parallel replicates set at each concentration. The cell growth group without compound was used as a positive control (maximum signal control) and the medium was used as a negative control (minimum signal control), while ensuring that the final level of DMSO in each reaction well was 0.2%. After removing the medium from the 384-well plate, 25 ul of the configured compound at different concentrations was transferred into the well plate and the compound and cells were incubated in the cell incubator at 37° C. with 5% CO2 for 3 days.
(§7) The 384-well plates were removed from the cell incubator and allowed to equilibrate for 1 h to room temperature. 25 ul of Cell Titer-Glo assay was added to each well, lysed on a shaker for 2 min and then read out (Luminescence) using a BMG PHERAStar after 10 min incubation. Calculate the inhibition rate from the luminescence signal: first calculate the average of the positive control (maximum signal control) and the negative control (minimum signal control).
(§8) [formula] to calculate the rate of inhibition of the cells by different concentrations of the compounds. The IC50 of the compound on cell activity inhibition was calculated by fitting a log(inhibitor) vs. response-Variable slope model to GraphPad Prism 6. The fitted equation was: Y=Bottom+(Top−Bottom)/(1+10^((Log IC50−X)*HillSlope)), where Y represents the rate of inhibition and X represents the concentration of the known compound after Log.

[4] = test system: MIA Paca-2 cells; assay: Anti-proliferative effect by Cell Titer-Glo, MIA Paca-2; assay type: cell-based; settings: Homo sapiens, read-out: IC50 measured value MIA Paca-2
Procedure: as §6, §7, §8

[5] = target: T1, Wee1 protein (Homo sapiens, UniProt P30291); assay: Binding of compound to Wee1 protein and Tracer 178 by TR-FRET; settings: inhibitory activity against Wee1 kinase, read-out: IC50 measured value
T1 construct: purchased Thermo Fisher PR7373A
Procedure: First, solutions of the compounds in different concentration gradients were prepared. […] DMSO was added as a positive control (maximal signal control) and a negative control (minimal signal control) and a final level of 0.25% DMSO was ensured in each reaction well.
WEE1 (Thermo Fisher, Cat #PR7373A) protein in buffer (50 mM Hepes pH 7.5, 10 mM MgCl2, 1 mM EGTA, 0.01% Brij-35) at 15 nM) in different concentrations of compound, and Tracer 178 (Invitrogen, PV5593) and MAb Anti-GST-Eu crypate (Cisbio, 61GSTKLA) were added to 384-well plates (Corning, cat #3574), centrifuged at 1000 rpm for 1 min and the 384-well plates were incubated in a constant temperature shaker for 60 min at 25° C. and 300 rpm. Tracer 178 and MAb Anti-GST-Eu crypate were prepared in buffer (50 mM HEPES pH 7.5, 10 mM MgCl2, 1 mM EGTA, 0.01% Brij-35) with a final reaction concentration of 50 nM for Tracer 178 and a final concentration of 2 nM for MAb Anti-GST-Eu crypate, where the negative control (minimal signal control) used an equal amount of buffer in place of the protein solution.
After incubation, readings were performed using BMG PHERAStar (excitation light at 337 nm and emission light at wavelength values of 620 nm and 665 nm to read the fluorescence signal values). […] The IC50 for inhibition of enzyme activity by the compounds was then calculated using GraphPad Prism 6 and fitted with a log (inhibitor) vs. response-Variable slope mode. The fitting equation was: Y=Bottom+(Top-Bottom)/(1+10^((Log IC50−X)*HillSlope)), where Y represents the percentage of residual enzyme activity known and X represents the known concentration of compound after the logarithm.

[6] = Compound pharmacokinetics in mice; assay type: in vivo; settings: male ICR mice, oral gavage 10 mg/kg, plasma; for Cmax / AUC(0-inf) / half-life: mouse; for AUC(0-inf): read-out: AUCinf—Pred; for half-life: read-out: T½ (converted)
Procedure: To investigate the pharmacokinetic properties of the compound in mice, six male ICR mice were given the compound by oral gavage (10 mg/kg) at the corresponding dose, and each route of administration was divided into two groups: group A mice had anticoagulated whole blood collected at 5 min, 30 min, 2 h and 8 h after administration, while group B mice had anticoagulated whole blood collected at 15 min, 1 h, 4 h and 24 h after administration, isolated plasma;
The plasma concentrations of the compounds were determined by LC-MS using a standard curve calibration method. Plasma concentration-time data were fitted to pharmacokinetic parameters using Winnolin 5.2 software.

[7] = Metabolic stability of liver microsomes in vitro (human); assay type: in vitro ADME; settings: read-out: Human T1/2/min
Procedure: as §1, §2, §3, §4, §5

[8] = Solubility test; assay type: physicochemical; settings: aqueous buffer, thermodynamic from solid; buffer solution, shaken at constant temperature 24 h
Procedure: The compound was placed in a buffer solution and shaken at constant temperature for 24 h. […] Chromatographic conditions: C18 column, mobile phase A: 0.02 M potassium dihydrogen phosphate:acetonitrile=90:10, mobile phase B: acetonitrile; V: 1.0 ml/min, T: 35° C., λ: 210 nm.

[9] = H1299 cells, 3 days, Cell Titer-Glo
[10] = 72 h, MIA Paca-2 cells, 3 days, Cell Titer-Glo

T1 sequence (P30291 whole entry): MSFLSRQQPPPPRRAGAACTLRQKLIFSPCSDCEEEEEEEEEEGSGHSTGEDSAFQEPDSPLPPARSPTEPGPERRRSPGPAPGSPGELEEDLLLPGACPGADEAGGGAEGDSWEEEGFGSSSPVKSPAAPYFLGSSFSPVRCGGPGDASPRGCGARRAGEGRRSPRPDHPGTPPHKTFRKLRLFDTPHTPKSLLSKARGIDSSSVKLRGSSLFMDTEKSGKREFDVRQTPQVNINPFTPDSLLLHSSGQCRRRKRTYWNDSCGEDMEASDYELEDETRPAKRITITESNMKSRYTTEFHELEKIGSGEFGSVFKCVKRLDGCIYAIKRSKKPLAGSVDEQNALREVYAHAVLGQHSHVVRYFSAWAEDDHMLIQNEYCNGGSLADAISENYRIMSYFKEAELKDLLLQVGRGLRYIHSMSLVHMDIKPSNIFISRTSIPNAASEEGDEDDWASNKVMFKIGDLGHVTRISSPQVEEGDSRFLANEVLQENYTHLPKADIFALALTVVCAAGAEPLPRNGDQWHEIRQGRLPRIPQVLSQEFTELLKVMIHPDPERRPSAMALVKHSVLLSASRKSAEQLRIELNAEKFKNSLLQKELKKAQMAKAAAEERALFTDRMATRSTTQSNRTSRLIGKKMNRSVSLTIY

| SMILES | IC50 [3, 9] | IC50 [4, 10] | IC50 [5] | other results |
| --- | --- | --- | --- | --- |
| CCn1cnc2ccc(-n3ncc4cnc(Nc5ccc(N6CCN(C)CC6)cc5)nc43)cc21 [Compound 45] | 100 to 1000 nM | 100 to 1000 nM | 10 to 100 nM | half-life at 1 µM [1]: 10.3 min; efflux ratio at 90 min, 10 µM [2]: 1.79; Papp A→B at 90 min, 10 µM [2]: 4.09 ×10⁻⁶ cm/s; Papp B→A at 90 min, 10 µM [2]: 7.34 ×10⁻⁶ cm/s |
| CN1CCN(c2ccc(Nc3ncc4cnn(-c5ccc6c(c5)C(C)(O)CO6)c4n3)cc2)CC1 (stereo not drawn) [Compound 40] | 100 to 1000 nM | 100 to 1000 nM | 10 to 100 nM | Cl_pred [6]: 24.3 L/h/kg; Cmax [6]: 377 ng/mL; AUC(0-inf) [6]: 493 ng·h/mL; half-life [6]: 42 min; half-life at 1 µM [1]: 20.4 min; efflux ratio at 90 min, 10 µM [2]: 0.89; Papp A→B at 90 min, 10 µM [2]: 18.6 ×10⁻⁶ cm/s; Papp B→A at 90 min, 10 µM [2]: 16.6 ×10⁻⁶ cm/s |
| CN1CCN(c2ccc(Nc3ncc4cnn(-c5ccnc(N=S(C)(C)=O)c5)c4n3)cc2)CC1 [Compound 28] | 5000 to 20000 nM | 1000 to 5000 nM | 100 to 1000 nM | Cl_pred [6]: 13.8 L/h/kg; Cmax [6]: 337 ng/mL; AUC(0-inf) [6]: 743 ng·h/mL; half-life [6]: 107 min |
| CN1CCC(c2ccc(Nc3ncc4cnn(-c5cccc(N=S(C)(C)=O)n5)c4n3)cc2)CC1 [Compound 18] | 1000 to 5000 nM | 100 to 1000 nM | 1 to 10 nM | half-life at 1 µM [1]: > 120 min; half-life at 1 µM [7]: > 120 min |
| CN1CCN(c2ccc(Nc3ncc4cnn(-c5cccc(C6(C#N)CC6)n5)c4n3)cc2)CC1 [Compound 3] |  |  | 10 to 100 nM | IC50 [3]: 1000 to 5000 nM; solubility at 24 h [8]: 60 µg/mL (≈ 133 µM) |
| CN1CCN(c2ccc(Nc3ncc4cnn(-c5cccc(N=S(C)(C)=O)n5)c4n3)cc2F)CC1 [Compound 19] | 1000 to 5000 nM | 100 to 1000 nM | 10 to 100 nM |  |
| Cc1cc(Nc2ncc3cnn(-c4cccc(C(C)(C)O)n4)c3n2)ccc1N1CCN(C)CC1 [Compound 21] | 1000 to 5000 nM | 100 to 1000 nM | 10 to 100 nM |  |
| CN1CCN(c2ccc(Nc3ncc4cnn(-c5cc(C(C)(C)O)ccc5F)c4n3)cc2)CC1 [Compound 52] | 100 to 1000 nM | 100 to 1000 nM | 100 to 1000 nM |  |
| CN1CCN(c2ccc(Nc3ncc4cnn(-c5cccc(N=S(C)(C)=O)c5)c4n3)nc2)CC1 [Compound 56] | 5000 to 20000 nM | 5000 to 20000 nM | 100 to 1000 nM |  |
| CN1CCN(c2ccc(Nc3ncc4cnn(-c5ccc6ccncc6c5)c4n3)cc2)CC1 [Compound 36] | 1000 to 5000 nM | 1000 to 5000 nM | 10 to 100 nM |  |
| CCN1C(=O)COc2ccc(-n3ncc4cnc(Nc5ccc(N6CCN(C)CC6)cc5)nc43)cc21 [Compound 59] |  |  | 10 to 100 nM | IC50 [3]: 100 to 1000 nM; IC50 ([4]; MIA PaCa-2, 72 h): 100 to 1000 nM |
